Reference: publication PMC8199755, “In Vitro and In Vivo Trypanocidal Efficacy of Synthesized Nitrofurantoin Analogs” (Molecules, 2021)
Where two headings read alike, the source gives them in different places.

Assays:
T. evansi Tansui = experiment: In vitro trypanocidal activity (CellTiter-Glo, 3 days); format: cell-based; conditions: 72 h, bloodstream forms, 37 °C, mean ± SD of triplicate, read-out: Trypanocidal Activity IC50 ± SD, Tev Tansui
Method: (§1) The bloodstream forms of T. b. brucei GUTat3.1, T. b. rhodesiense IL1501, T. b. rhodesiense Chirundu, T. b. gambiense IL1922, and T. evansi Tansui strains were propagated in culture at 37 °C, whereas the T. congolense IL3000 strain was propagated at 33 °C in Hirumi’s modified Iscove’s medium-9, supplemented with 20% heat-inactivated fetal bovine serum. The bloodstream form cultures were maintained by replacing the entire culture supernatant with fresh medium, every other day.
(§2) The trypanocidal activity and cytotoxicity of nitrofurantoin analogs were evaluated according to previous reports, with some modifications. In brief, bloodstream forms adjusted at 2.5 × 10^3 cells/mL (T. b. brucei GUTat3.1, T. b. gambiense IL1922, and T. b. rhodesiense IL1501), 1 × 10^4 cells/mL (T. evansi Tansui and T. b. rhodesiense Chirundu), and 1 × 10^5 cells/mL (T. congolense IL3000), were cultivated in Nunc® MicroWell 96-well optical bottom plates (Thermo Fisher Scientific, Waltham, MA, USA) and exposed to various analogs at seven different concentrations for 3 days, in an incubator at 37 °C (33 °C for T. congolense IL3000). […] Twenty-five microliters of the Cell-TiterGlo® (Promega, Madison, WI, USA) reagent was added into each well, and bioluminescence was measured using a GloMax®-Multi+Detection System plate reader (Promega).
(§3) The half maximum inhibitory concentration (IC50) of each analog in trypanosomes and the Madin–Darby bovine kidney cells was calculated using the GraphPad Prism version 8 software (GraphPad, Inc., San Diego, CA, USA).

T. b. rhodesiense IL1501 = experiment: as above; format: cell-based; conditions: Trypanosoma brucei, 72 h, bloodstream forms, 37 °C, mean ± SD of triplicate, read-out: Trypanocidal Activity IC50 ± SD, Tbr IL1501
Method: as §1, §2, §3

T. congolense IL3000 = experiment: as above; format: cell-based; conditions: bloodstream forms, 33 °C, mean ± SD of triplicate, read-out: Trypanocidal Activity IC50 ± SD, Tc IL3000
Method: as §1, §2, §3

T. b. brucei GUTat3.1 = experiment: as above; format: cell-based; conditions: Trypanosoma brucei, 72 h, bloodstream forms, 37 °C, mean ± SD of triplicate, read-out: Trypanocidal Activity IC50 ± SD, Tbb GUTat3.1
Method: as §1, §2, §3

T. b. gambiense IL1922 = experiment: as above; format: cell-based; conditions: Trypanosoma brucei, 72 h, bloodstream forms, 37 °C, mean ± SD of triplicate, read-out: Trypanocidal Activity IC50 ± SD, Tbg IL1922
Method: as §1, §2, §3

[1] = Cytotoxicity (Cell Counting Kit-8, 3 days); format: cell-based, bovine; conditions: bovine, 37 °C, mean ± SD of triplicate
Method: Additionally, Madin–Darby bovine kidney cells were cultivated (density, 1 × 10^4 cells/mL) in a 96-well cell culture plate (Thermo Fisher Scientific) with the analogs, at seven different concentrations for 3 days at 37 °C. Next, 10 µl of the Cell Counting Kit-8 solution (Dojindo, Kumamoto, Japan) was added into each well […] 4 h of incubation. Absorbance was measured at 450 nm using a GloMax®-Multi+Detection System plate reader.
as §3

[2] = tested on: T. b. rhodesiense Chirundu; experiment: In vitro trypanocidal activity (CellTiter-Glo, 3 days); format: cell-based; conditions: Trypanosoma brucei, 72 h, bloodstream forms, 37 °C, mean ± SD of triplicate, read-out: Trypanocidal Activity IC50 ± SD, Tbr Chirundu
Method: as §1, §2, §3

[3] = Madin–Darby bovine kidney (MDBK) cells

Row | Compound | IC50 (T. evansi Tansui) [nM] | IC50 (T. b. rhodesiense IL1501) [nM] | IC50 (T. congolense IL3000; Trypanosoma congolense, 72 h) [nM] | IC50 (T. congolense IL3000) [nM] | IC50 (T. b. brucei GUTat3.1) [nM] | IC50 (T. b. gambiense IL1922) [nM] | IC50 at 3 days [1, 3] [nM] | IC50 [2] [nM] | IC50 at 3 days ([1]; MDBK cells) [nM]
1 | CN1C(=O)CN(/N=C/c2ccc([N+](=O)[O-])o2)C1=O [Analog 1, (E)-3-Methyl-1-([(5-nitrofuran-2-yl)methylene]amino)imidazolidine-2,4-dione] | 1610 ± 98 | 7020 ± 94 | 190 to 730 | 190 ± 76 | 3610 ± 400 | 3600 ± 260 | 65200 ± 12800 |  | 
2 | CCN1C(=O)CN(/N=C/c2ccc([N+](=O)[O-])o2)C1=O [Analog 2, (E)-3-Ethyl-1-([(5-nitrofuran-2-yl)methylene]amino)imidazolidine-2,4-dione] | 5390 ± 530 | 11400 ± 5240 |  |  | 10800 ± 4840 | 11300 ± 4800 | 44800 ± 1690 |  | 
3 | CCCN1C(=O)CN(/N=C/c2ccc([N+](=O)[O-])o2)C1=O [Analog 3, (E)-1-([(5-Nitrofuran-2-yl)methylene]amino)-3-propylimidazolidine-2,4-dione] | 6530 ± 610 | 14000 ± 1420 | 330 ± 180 |  | 14100 ± 340 | 14700 ± 1320 | 39300 ± 1090 | 810 ± 240 | 
4 | CCCCN1C(=O)CN(/N=C/c2ccc([N+](=O)[O-])o2)C1=O [Analog 4, (E)-3-Butyl-1-([(5-nitrofuran-2-yl)methylene]amino)imidazolidine-2,4-dione] | 7890 ± 530 | 32700 ± 820 | 310 ± 200 |  | 33300 ± 24300 | 17200 ± 2230 | 35800 ± 3490 | 1380 ± 340 | 
5 | CCCCCN1C(=O)CN(/N=C/c2ccc([N+](=O)[O-])o2)C1=O [Analog 5, (E)-1-([(5-Nitrofuran-2-yl)methylene]amino)-3-pentylimidazolidine-2,4-dione] | 5440 ± 170 | 5690 ± 1660 | 350 ± 150 |  | 4240 ± 1990 | 3420 ± 1470 | 39100 ± 5860 |  | 
6 | CCCCCCN1C(=O)CN(/N=C/c2ccc([N+](=O)[O-])o2)C1=O [Analog 6, (E)-3-Hexyl-1-([(5-nitrofuran-2-yl)methylene]amino)imidazolidine-2,4-dione] | 3760 ± 470 | 2610 ± 120 | 80 ± 47 |  | 5760 ± 4010 | 2590 ± 280 | 25200 ± 3520 | 170 ± 110 | 
7 | CCCCCCCN1C(=O)CN(/N=C/c2ccc([N+](=O)[O-])o2)C1=O [Analog 7, (E)-3-Heptyl-1-([(5-nitrofuran-2-yl)methylene]amino)imidazolidine-2,4-dione] | 1020 ± 100 | 1450 ± 860 | 40 ± 11 |  | 2060 ± 750 | 1990 ± 750 | 92300 ± 6520 | 56 ± 26 | 
8 | CCCCCCCCCCN1C(=O)CN(/N=C/c2ccc([N+](=O)[O-])o2)C1=O [Analog 10, (E)-3-Decyl-1-([(5-nitrofuran-2-yl)methylene]amino)imidazolidine-2,4-dione] | 280 ± 25 | 610 ± 60 | 11 ± 4.4 |  | 650 ± 560 | 620 ± 700 | 110000 ± 14400 | 17 ± 4.4 | 
9 | O=C1CN(/N=C/c2ccc([N+](=O)[O-])o2)C(=O)N1CCCc1ccccc1 [Analog 13, (E)-1-([(5-Nitrofuran-2-yl)methylene]amino)-3-(3-phenylpropyl)imidazolidine-2,4-dione] | 3110 ± 370 | 5900 ± 3750 | 140 ± 30 |  | 7290 ± 3160 | 4830 ± 3220 | > 281000 | 140 ± 67 | 
10 | O=C1CN(/N=C/c2ccc([N+](=O)[O-])o2)C(=O)N1Cc1ccccc1 [Analog 14, (E)-3-Benzyl-1-([(5-nitrofuran-2-yl)methylene]amino)imidazolidine-2,4-dione] | 1260 ± 100 | 2830 ± 610 | 180 ± 17 |  | 2880 ± 260 | 2340 ± 640 | > 305000 | 270 ± 120 | 
11 | Cc1ccc(CN2C(=O)CN(/N=C/c3ccc([N+](=O)[O-])o3)C2=O)cc1 [Analog 15, (E)-3-(p-Methylbenzyl)-1-([(5-nitrofuran-2-yl)methylene]amino)imidazolidine-2,4-dione] | 4230 ± 400 | 6100 ± 47 | 130 ± 44 |  | 8240 ± 3110 | 2890 ± 510 | 34300 ± 11500 | 150 ± 68 | 
12 | O=C1CN(/N=C/c2ccc([N+](=O)[O-])o2)C(=O)N1Cc1ccc(C(F)(F)F)cc1 [Analog 16, (E)-1-([(5-Nitrofuran-2-yl)methylene]amino)-3-(p-(trifluoromethyl)benzyl) imidazolidine-2,4-dione] | 440 ± 46 | 960 ± 8.7 | 20 |  | 520 ± 81 | 610 ± 260 | 56600 ± 40800 | 20 ± 12 | 
13 | O=C1CN(/N=C/c2ccc([N+](=O)[O-])o2)C(=O)N1Cc1ccc([N+](=O)[O-])cc1 [Analog 17, (E)-3-(p-Nitrobenzyl)-1-([(5-nitrofuran-2-yl)methylene]amino)imidazolidine-2,4-dione] | 610 ± 50 | 500 ± 12 | 40 ± 17 |  | 1070 ± 740 | 1050 ± 700 |  | 40 ± 94 | 20100 ± 1020
14 | COc1ccc(CN2C(=O)CN(/N=C/c3ccc([N+](=O)[O-])o3)C2=O)cc1 [Analog 18, (E)-3-(p-Methoxybenzyl)-1-([(5-nitrofuran-2-yl)methylene]amino)imidazolidine-2,4-dione] | 2400 ± 190 | 10100 ± 620 | 140 ± 30 |  | 9910 ± 92 | 9780 ± 310 | 80100 ± 36900 | 330 ± 220 | 
15 | O=C1CN(/N=C/c2ccc([N+](=O)[O-])o2)C(=O)N1Cc1ccc(Br)cc1 [Analog 19, (E)-3-(p-Bromobenzyl)-1-([(5-nitrofuran-2-yl)methylene]amino)imidazolidine-2,4-dione] | 1150 ± 110 | 2470 ± 690 | 49 ± 33 |  | 2130 ± 230 | 2040 ± 91 | 28700 ± 5690 | 41 ± 25 | 
16 | NCCCC(N)(C(=O)O)C(F)F (stereo not drawn) [Eflornithine, reference compound] | 57200 ± 17600 | 46000 ± 17100 | 16100 ± 2930 |  | 38600 ± 9880 | 36700 ± 12900 |  | 35600 ± 10200 | 
17 | CC1CS(=O)(=O)CCN1/N=C/c1ccc([N+](=O)[O-])o1 (stereo not drawn) [Nifurtimox, reference compound] | 2620 ± 1400 | 4350 ± 1590 | 1060 ± 220 |  | 4660 | 4580 ± 2380 |  | 1460 ± 350 | 
18 | N=C(N)c1ccc(OCCCCCOc2ccc(C(=N)N)cc2)cc1 [Pentamidine, reference compound] | 0.97 ± 0.19 | 29 ± 6.2 | 330 ± 54 |  | 41 ± 2.3 | 14 ± 3.1 |  | 50 ± 12 | 
19 | Cc1ccc(C(=O)Nc2ccc(S(=O)(=O)O)c3cc(S(=O)(=O)O)cc(S(=O)(=O)O)c23)cc1NC(=O)c1cccc(NC(=O)Nc2cccc(C(=O)Nc3cc(C(=O)Nc4ccc(S(=O)(=O)O)c5cc(S(=O)(=O)O)cc(S(=O)(=O)O)c45)ccc3C)c2)c1 [Suramin, reference compound] | 380 ± 58 | 76 ± 11 | 7170 ± 870 |  | 66 ± 5.2 | 64 ± 1.8 |  | 66 ± 71 | 
